Here are results for three substances from PMC11697113, “The Hsc70 system maintains the synaptic SNARE protein SNAP-25 in an assembly-competent state and delays its aggregation [drawing 1]” (The Journal of Biological Chemistry, 2024).

For the test, the target named is T1, Hsc70 (Homo sapiens, UniProt P11142).
T1 construct: 6X His-tag (TEV-cleavable) (cleaved yes); made in house; host or cells: E. coli Rosetta (DE3)
The experiment in a line: SNAP-25 cellulose-bound peptide array probed with Hsc70. It is filed as binding. As to conditions: Hsc70 100 nM, 1 h, 25 °C; for Hsc70 binding of the SNAP-25 sequence in the peptide array: ADP/ATP, anti-Hsc70 chemiluminescence. The source says:
To explore in greater depth the binding sites for Hsc70 in SNAP-25, we screened a cellulose-bound peptide array spanning the full SNAP-25 sequence with 13-residue long peptides, overlapping by ten residues, and probed with Hsc70 in the presence of a two-fold excess of ATP and […] of ADP. The binding of Hsc70 to sites in the array was then visualized with an anti-Hsc70 primary antibody and a horse radish peroxidase-tagged secondary antibody to enable visualization by chemiluminescence (Fig. 4A). To quantitatively analyze the array, we used ImageJ (https://imagej.net/ij/) and plotted the intensity under the area for each spot. […] One site is located in the SNN, one in the LOOP, and one in the LOOP-SNC region (called SNC site) (Fig. 4A) […] (Fig. 1C). […] The binding site in the LOOP region is very close to the cysteine residues that become palmitoylated as SNAP-25 moves to its membrane-localized state. It is formally possible that Hsc70 binds to SNAP-25 in the initial un-palmitoylated state and dissociates upon palmitoylation and association with the plasma membrane. However, it can be assumed that the binding of this region to Hsc70 is not implicated in the events directly preceding SNARE complex assembly, as it will not be accessible to the chaperone. Therefore, we posit that chaperone binding to the SNN and SNC regions plays a mechanistic role in facilitating productive SNAP-25 association with the other SNARE proteins.
B, quantification of the spots from Figure 4A using ImageJ (Hsc70 (gray) and Hsc70-CSPαJ (dark gray)). Signals corresponding to SNN, Loop and Loop-SNC peptides are marked in orange, blue, and green, respectively. Orange, blue, and green lines at the top of the graph indicate the SNN, Loop and SNC regions, respectively. C, schematic representation of SNAP-25 showing the Hsc70 binding sequences (SNN (orange), Loop (black), and Loop-SNC (green)) identified in the peptide array. […]
A peptide array of SNAP-25 was obtained from CEM corporation. […] The chemiluminescence was captured in a G-box (Syngene), and the images were analyzed using ImageJ.

T1 sequence (P11142 whole entry): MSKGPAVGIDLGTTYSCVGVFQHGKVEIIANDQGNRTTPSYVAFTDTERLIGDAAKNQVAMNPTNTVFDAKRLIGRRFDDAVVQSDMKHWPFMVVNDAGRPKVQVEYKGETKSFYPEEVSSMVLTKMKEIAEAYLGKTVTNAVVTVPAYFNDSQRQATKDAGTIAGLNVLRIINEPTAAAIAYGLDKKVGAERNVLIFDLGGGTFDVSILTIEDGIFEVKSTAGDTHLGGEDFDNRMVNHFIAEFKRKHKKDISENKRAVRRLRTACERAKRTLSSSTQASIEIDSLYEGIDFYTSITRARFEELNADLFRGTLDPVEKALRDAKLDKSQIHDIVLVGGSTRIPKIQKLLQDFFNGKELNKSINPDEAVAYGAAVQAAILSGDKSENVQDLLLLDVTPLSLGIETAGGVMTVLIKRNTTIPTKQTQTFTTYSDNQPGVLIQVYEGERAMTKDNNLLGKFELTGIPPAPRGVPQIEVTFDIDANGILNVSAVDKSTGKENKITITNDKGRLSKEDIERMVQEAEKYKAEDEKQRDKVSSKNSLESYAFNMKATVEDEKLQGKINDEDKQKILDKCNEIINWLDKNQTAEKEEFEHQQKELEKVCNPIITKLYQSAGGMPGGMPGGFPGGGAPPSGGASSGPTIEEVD

With “synaptosomal-associated 25 kDa protein [SNAP-25]”, for the setting “13-residue peptides overlapping by ten, 20 μM ADP, 200 nM ATP, ECL, ImageJ, sites in SNN, LOOP and LOOP-SNC”, the “number of major Hsc70 binding sites on SNAP-25” value is “Three major Hsc70 binding sites”.
As to “RRMLQLVEESK [SNNP, peptide … from the SNN domain of SNAP-25]”, the “Hsc70 binding of the SNAP-25 sequence in the peptide array” value is given as “strong binding”.
On the same count and under the same terms, next, “EREQMAISGGFIRR [SNCP, peptide … from the LOOP-SNC domain of SNAP-25]”: “strong binding”.
